The target in series [1] is T1, OCT3 (Homo sapiens, UniProt O75751).
T1 construct: expressed in transfected cells; host or cells: HEK293
T1 sequence (O75751 1-556): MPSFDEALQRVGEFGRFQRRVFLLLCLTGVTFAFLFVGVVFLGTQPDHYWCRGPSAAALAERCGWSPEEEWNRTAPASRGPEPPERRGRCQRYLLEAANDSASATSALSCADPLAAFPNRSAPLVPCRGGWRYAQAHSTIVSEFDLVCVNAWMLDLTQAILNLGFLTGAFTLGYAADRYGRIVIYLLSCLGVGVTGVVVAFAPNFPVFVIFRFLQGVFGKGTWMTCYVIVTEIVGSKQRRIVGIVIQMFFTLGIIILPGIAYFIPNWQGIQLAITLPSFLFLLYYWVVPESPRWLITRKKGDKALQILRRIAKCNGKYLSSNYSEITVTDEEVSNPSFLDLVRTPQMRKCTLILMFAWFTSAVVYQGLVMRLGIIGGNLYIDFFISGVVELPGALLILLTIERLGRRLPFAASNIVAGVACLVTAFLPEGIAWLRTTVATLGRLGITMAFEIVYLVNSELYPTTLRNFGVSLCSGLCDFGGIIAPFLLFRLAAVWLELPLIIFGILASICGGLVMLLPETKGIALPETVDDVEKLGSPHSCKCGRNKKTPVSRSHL
The series can be described thus: Inhibition of model substrate uptake in OCT3-overexpressing HEK293 cells. Particulars: for IC50: 2 μM ASP+ or ethambutol as model substrate. In kind it is cell-based. In short, it runs like this: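 Transporter-overexpressing HEK293 cells were incubated 5 min in HBSS+ with 2 μM model substrate, with or without 20 μM inhibitor or increasing inhibitor concentrations. Uptake was read as ASP^+ fluorescence or by LC–MS/MS, with empty-vector uptake subtracted. IC50 came from a Hill fit of activity versus log concentration.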

Series [2] addresses T1, OCT3. Nature of the series: Concentration-dependent uptake of model substrates, OCT3-overexpressing HEK293 cells. In kind it is in vitro ADME. Conditions: vmax over Km, this study. The procedure: Koepsell and Gorbulev (University of Würzburg, Germany).
Prior to inhibition studies, the used model substrates were validated in concentration-dependent uptake experiments if no literature data were available (Table S2 and Figures S2 and S3). Thereby, we ensured that the model substrate concentration used in the subsequent inhibition experiments was sufficiently below the Km value of its uptake kinetics. […] On the day of the experiment, the cells were washed once with prewarmed to 37 °C HBSS (Thermo Fisher Scientific, Darmstadt, Germany) supplemented with 10 mM HEPES and pH adjusted to 7.4 (Sigma-Aldrich)—hereafter termed HBSS+. For concentration-dependent experiments, the cells were incubated with increasing substrate concentrations for 2 min. Uptake was terminated by adding ice-cold HBSS+. Afterward, the cells were washed twice with ice-cold HBSS+, and cell lysis was done with 80% (v/v) acetonitrile (LGC Standards, Wesel, Germany) to which an internal standard for eventual LC–MS/MS analysis had been added. Intracellularly accumulated substrates were then quantified by LC–MS/MS analysis, and calibration was performed with known concentrations of the respective substances. All uptake data were normalized to the number of seeded cells by measuring the total protein content in radioimmunoprecipitation assay buffer-lysed cells in a bicinchoninic acid assay.[29]

The mark [3] stands for this setting: HEK293, 5 min, read-out: (S,S)-Ethambutol inhibition [%], OCT3, 20 μM inhibitor, 2 μM (S,S)-ethambutol, 5 min.
[4] abbreviates: HEK293, OCT3, 20 μM inhibitor, 2 μM ASP+, 5 min, read-out: ASP+ inhibition [%].

Where two headings read alike, the source gives them in different places.

As a reminder, the inhibition is the percentage by which the read-out fell short of the control. For orientation: IC50 means the midpoint of a concentration-inhibition curve. For `CCN(CC)CC#CCOC(=O)[C@](O)(c1ccccc1)C1CCCCC1` [(R)-Oxybutynine], the inhibition at 20 µM at OCT3 [1] (setting [3]) turned out to be 64.7%; on OCT3 [1] (setting [4]), 31.3%. On OCT3 [1] (IC50, OCT3, Table S5, 5 min), half-maximal inhibition (IC50) required 65 µM. Further, the “Stereoselectivity (x-fold for the named isomer)” value at OCT3 [1] (OCT3, Table S5, ratio of the IC50 values of both isomers, label = isomer named in the cell (as a rule the one with the higher IC50)) is given as 1.6 fold. For the same compound, the “(S)-Zolmitriptan inhibition [%]” value on OCT3 [1] (OCT3, 20 μM inhibitor, 2 μM (S)-zolmitriptan, 5 min) is on record as 42.2%.
For `CCCN[C@H]1CCc2nc(N)sc2C1` [(S)-Pramipexole], the inhibition at 20 µM on OCT3 [1] (HEK293, 5 min, read-out: (S)-Zolmitriptan inhibition [%], OCT3, 20 μM inhibitor, 2 μM (S)-zolmitriptan, 5 min) was found to be 18.4%; on OCT3 [1] (setting [3]) it was 30.2%; on OCT3 [1] (setting [4]) it was 6.1%.
For the compound `CN(C)CCc1c[nH]c2ccc(C[C@H]3COC(=O)N3)cc12` [(S)-Zolmitriptan], the “Clint ± SEM” value at OCT3 [2] came to 24.0. In addition, the inhibition at 20 µM at OCT3 [1] (setting [3]) stood at 55%; on OCT3 [1] (setting [4]), 38.5%. Besides, the IC50 at OCT3 [1] (OCT3, Table S5, 5 min, read-out: IC50) worked out at 17.3 µM. Besides, the “fold more potent in the inhibition of OCT3 than the respective counterpart” value at OCT3 [1] (OCT3, label = the more potent enantiomer) is reported as 25 fold.

The values above are taken from PMC10698726 (Molecular Pharmaceutics, 2023).
